Measurements taken from patent EP0502418A1, “Use of levemopamil for the manufacture of a medicament for the treatment of alcohol abuse” (priority 1991, dated 1992).

Columns and labels:
P rats = test: Alcohol and water intake in P rats, three doses of levemopamil (Example 6); assay type: in vivo
Procedure: Levemopamil and a vehicle were administered in eight P rats obtained from the Indiana Alcohol Research Center at the University of Indiana School of Medicine, as described in Example 5. After establishing a stable baseline for alcohol and water intake, Each animal was injected twice (9:15 and 16:00 hours) with either one of three doses of levemopamil (3.3, 10, and 20 mg/Kg) or an equal volume of the vehicle (a solution of 1 ml absolute ethanol and 4 ml distilled water. Water and alcohol intake were monitored. The amount of alcohol and water intake was recorded twice daily before each administration of vehicle or levemopamil and continued during the drug washout periods.

[1] = compared with verapamil; cited from earlier work
[2] = system: alcohol preferring Wistar rats; test: Alcohol, water, total fluid and food intake in alcohol preferring (P) rats, single dose level (Example 5); assay type: in vivo
Procedure: Levemopamil was administered in eight selectively-bred adult male alcohol preferring Wistar rats (hereinafter "P") obtained from the Indiana Alcohol Research Center at the University of Indiana School of Medicine.
These lines of rats have been developed genetically through selected breeding by Lumeng et al., New strains of rats with alcohol preference and nonpreference. In: Thurman et al., Eds. Alcohol and Aldehyde Metabolizing Systems. Vol. 3. New York: Academic Press, 1977. pp. 537-544. The P rats prefer to drink at least 5g/Kg body weight/day of a 10% (v/v) ethanol solution in a free-choice situation with food and water available. These rats have been widely used as an animal model of alcoholism. See, Tabakoff et al., Biochemical Pharmacology of Alcohol. Meltzer, Ed. In: Psychopharmacology: The Third Generation of Progress. New York: Raven Press, 1978. pp.1521-1526.
The criteria for classification of P rats was that the average daily intake of ethanol (10%v/v) in P rats should be equal or greater than 5g/Kg body weight/day and the ethanol to water intake ratio should be equal or greater than 2:1.
After establishing a stable baseline for alcohol and water intake, Each animal was injected twice (9:30 and 16:30 hours) with a 10 mg/Kg dosage of levemopamil or an equal volume of the vehicle. Water, alcohol and food intake were monitored.

[3] = in vivo; cited from earlier work

CC(C)C(C#N)(CCCN(C)CCc1ccccc1)c1ccccc1 (centres unmarked) [levemopamil, 2-isopropyl-5-(methylphenethylamino)-2-phenylvaleronitrile]
intake of ethanol (P rats; 10mg/Kg and 20 mg/Kg twice daily over one day, vs vehicle and base-line, Figure 5): significantly reduced | intake of water (P rats; 10mg/Kg and 20 mg/Kg twice daily over one day, vs vehicle and base-line, Figure 6): significantly increased | Alcohol intake during the drug washout periods (P rats; drug washout periods after dosing): returned to base-line levels | ethanol intake (P rats; low dose 3.3mg/Kg, injected twice, Figure 5): did not induce a significant change | water intake (P rats; low dose 3.3mg/Kg, injected twice, Figure 6): did not induce a significant change | cerebral availability [1]: significantly higher than that of the comparison compound verapamil | alcohol intake or consumption ([2]; 10 mg/Kg injected twice (9:30 and 16:30 hours), vs baseline and vehicle, Figure 1): significantly attenuated | food intake ([2]; 10 mg/Kg injected twice, Figure 4): unaffected | water intake ([2]; 10 mg/Kg injected twice, vs vehicle and base-line, Figure 2): significantly increased | Total fluid intake ([2]; 10 mg/Kg injected twice, vs vehicle and base-line, Figure 3): decreased | passage of the blood/brain barrier by brain uptake index (BUI) [3]: more rapidly and in considerably larger amounts than does verapamil
